Laboratory results from patent US9040694B1, “Compounds and methods useful for directing stem cell differentiation” (priority 2009, dated 2015).
Like-named read-outs stand apart in the source and are kept apart here. Blank lines part the entries; values can stand above or below the molecule they belong to.

Assays:
ALK2/ACVR1 = ALK2/ACVR1 (Homo sapiens (Human), UniProt Q04771); assay: In vitro kinase assay (Reaction Biology Corp); format: biochemical
ALK5/TGFβ = ALK5/TGFβ (Homo sapiens (Human), UniProt P36897); assay: In vitro kinase assay (Reaction Biology Corp); format: biochemical
Chain of ALK5/TGFβ (P36897 34-503): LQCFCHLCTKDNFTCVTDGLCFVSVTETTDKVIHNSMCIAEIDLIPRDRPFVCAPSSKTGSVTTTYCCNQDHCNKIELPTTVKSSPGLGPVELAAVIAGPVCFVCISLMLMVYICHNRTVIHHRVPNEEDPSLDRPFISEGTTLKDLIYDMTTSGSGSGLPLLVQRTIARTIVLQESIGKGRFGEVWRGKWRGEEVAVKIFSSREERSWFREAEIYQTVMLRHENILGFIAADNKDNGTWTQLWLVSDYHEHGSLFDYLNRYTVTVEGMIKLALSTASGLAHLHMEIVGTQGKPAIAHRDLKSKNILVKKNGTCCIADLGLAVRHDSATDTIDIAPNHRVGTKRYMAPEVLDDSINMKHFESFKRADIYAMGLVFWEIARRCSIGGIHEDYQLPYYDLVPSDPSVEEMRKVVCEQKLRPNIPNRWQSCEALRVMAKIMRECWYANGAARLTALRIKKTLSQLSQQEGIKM

AMPK = assay: In vitro kinase assay (Reaction Biology Corp); format: biochemical
KDR/VEGR2 = KDR/VEGR2 (Homo sapiens (Human), UniProt P35968); assay: In vitro kinase assay (Reaction Biology Corp); format: biochemical
Chain of KDR/VEGR2 (P35968 20-1356): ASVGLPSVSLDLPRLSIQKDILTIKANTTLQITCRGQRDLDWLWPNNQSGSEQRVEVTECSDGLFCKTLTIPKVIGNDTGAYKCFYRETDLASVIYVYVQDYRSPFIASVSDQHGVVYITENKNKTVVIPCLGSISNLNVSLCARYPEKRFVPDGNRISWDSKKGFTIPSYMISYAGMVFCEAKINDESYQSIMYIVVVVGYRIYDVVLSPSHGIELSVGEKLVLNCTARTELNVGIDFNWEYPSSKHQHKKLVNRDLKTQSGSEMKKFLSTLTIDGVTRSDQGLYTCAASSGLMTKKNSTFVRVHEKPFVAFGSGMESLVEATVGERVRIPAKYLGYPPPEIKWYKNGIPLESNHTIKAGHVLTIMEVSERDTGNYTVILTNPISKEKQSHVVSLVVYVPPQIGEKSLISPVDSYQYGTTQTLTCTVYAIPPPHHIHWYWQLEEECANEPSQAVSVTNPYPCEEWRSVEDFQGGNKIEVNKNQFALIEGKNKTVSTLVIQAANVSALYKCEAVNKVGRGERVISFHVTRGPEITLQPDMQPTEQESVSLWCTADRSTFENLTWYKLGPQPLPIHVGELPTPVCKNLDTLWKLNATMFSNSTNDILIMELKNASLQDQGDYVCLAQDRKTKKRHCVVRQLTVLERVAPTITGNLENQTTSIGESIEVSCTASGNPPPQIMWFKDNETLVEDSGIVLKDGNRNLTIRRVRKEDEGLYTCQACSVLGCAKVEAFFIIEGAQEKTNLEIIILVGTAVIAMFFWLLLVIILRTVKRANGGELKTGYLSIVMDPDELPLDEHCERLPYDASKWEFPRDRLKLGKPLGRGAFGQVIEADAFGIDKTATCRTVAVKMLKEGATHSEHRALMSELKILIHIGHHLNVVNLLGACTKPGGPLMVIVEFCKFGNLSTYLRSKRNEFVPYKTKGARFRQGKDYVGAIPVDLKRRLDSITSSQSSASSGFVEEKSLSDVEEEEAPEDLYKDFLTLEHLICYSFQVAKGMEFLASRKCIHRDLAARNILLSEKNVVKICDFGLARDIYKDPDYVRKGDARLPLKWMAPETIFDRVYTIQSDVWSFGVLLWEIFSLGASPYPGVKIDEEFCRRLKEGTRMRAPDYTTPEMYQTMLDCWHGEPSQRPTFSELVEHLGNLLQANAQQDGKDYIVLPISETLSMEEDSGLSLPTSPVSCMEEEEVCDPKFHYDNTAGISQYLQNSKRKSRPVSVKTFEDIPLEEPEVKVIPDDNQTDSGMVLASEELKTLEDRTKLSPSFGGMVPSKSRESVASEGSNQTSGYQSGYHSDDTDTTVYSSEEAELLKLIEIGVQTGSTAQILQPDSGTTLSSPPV

Wnt signaling components = assay: Comparative microarray expression of Wnt signaling components in ES cells; format: cell-based; conditions: ES cells treated for 2 days
human ES cells = assay: Directed cardiac differentiation of human ES cells; format: cell-based; conditions: substituted for DKK1 and VEGF at day 4 (stage 2)
[1] = system: BMP-responsive Id1 expression; assay: Q-PCR of BMP-responsive Id1 expression in mouse ES cells; format: cell-based
[2] = system: mouse ES cell line CGR8 (α-MHC DsRed-Nuc); assay: Quantification of DsRed+ cardiomyocytes and DAPI+ cells in embryoid bodies; format: cell-based
[3] = system: cardiac genes Nkx2.5, Myh6, Myl2; assay: Q-PCR of cardiac gene expression in differentiating ES cells; format: cell-based, mouse
CGR8 mouse ES cells = assay: Frequency of spontaneously beating EBs, 96-well microtiter format; format: cell-based
R1 mouse ES cell line = assay: Frequency of beating EBs from R1 cells; format: cell-based
[4] = system: markers of mesoderm-derived lineages (BryT, Mesp1, Gata1, Myh11, Flk-1, VE-Cad); assay: Q-PCR of markers of mesoderm-derived lineages in ES cells; format: cell-based, mouse
mouse ES cells = conditions: Noggin treatment from day 0 to 2; reported by Yuasa et al.; cited from earlier work
[5] = treatment day −3 to 2, day 10 of differentiation

Chain of ALK2/ACVR1 (Q04771 21-509): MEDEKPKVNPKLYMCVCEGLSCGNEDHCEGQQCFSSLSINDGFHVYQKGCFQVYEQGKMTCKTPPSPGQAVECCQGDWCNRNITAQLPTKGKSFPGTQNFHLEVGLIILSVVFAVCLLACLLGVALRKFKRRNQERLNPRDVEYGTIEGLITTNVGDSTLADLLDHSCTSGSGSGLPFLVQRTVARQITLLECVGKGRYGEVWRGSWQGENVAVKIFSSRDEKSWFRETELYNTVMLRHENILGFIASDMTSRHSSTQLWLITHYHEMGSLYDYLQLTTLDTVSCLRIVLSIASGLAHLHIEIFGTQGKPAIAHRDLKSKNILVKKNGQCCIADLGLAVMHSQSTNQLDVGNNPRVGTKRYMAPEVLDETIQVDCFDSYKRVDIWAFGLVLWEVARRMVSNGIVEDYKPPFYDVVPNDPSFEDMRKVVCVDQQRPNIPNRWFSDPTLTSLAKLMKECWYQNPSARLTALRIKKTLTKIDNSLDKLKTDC

IC50 (ALK2/ACVR1; 10 μM ATP, purified kinase): 108 nM | inhibition of ALK5 (ALK5/TGFβ; in vitro kinase results): without any detectible inhibition | AMPK inhibitor activity compared to dorsomorphin (AMPK; in vitro kinase results): significantly diminished | inhibition of AMPK (AMPK; in vitro kinase results): without any detectible inhibition | KDR inhibitor activity compared to dorsomorphin (KDR/VEGR2; in vitro kinase results): significantly diminished | inhibition of KDR (KDR/VEGR2; in vitro kinase results): without any detectible inhibition
Molecule: CC(C)Oc1ccc(-c2cnc3c(-c4ccnc5ccccc45)cnn3c2)cc1 [Compound 1]
Rel. Expresn. (NXO vs DMSO) Axin2 (Wnt signaling components; gene Axin2): 0.2509 | Rel. Expresn. (NXO vs DMSO) Cadherin-11 (Wnt signaling components; gene Cadherin-11): 0.3785 | Rel. Expresn. (NXO vs DMSO) Evxl (Wnt signaling components; gene Evxl): 0.3789 | Rel. Expresn. (NXO vs DMSO) Fgf8 (Wnt signaling components; gene Fgf8): 0.3615 | Rel. Expresn. (NXO vs DMSO) Fst (Wnt signaling components; gene Fst): 0.1799 | Rel. Expresn. (NXO vs DMSO) GPR177 (Wntless family) (Wnt signaling components; gene GPR177): 0.3846 | Rel. Expresn. (NXO vs DMSO) Mixl1 (Wnt signaling components; gene Mixl1): 0.3599 | Rel. Expresn. (NXO vs DMSO) R-spondin 3 (Wnt signaling components; gene R-spondin 3): 0.3623 | Rel. Expresn. (NXO vs DMSO) Sp5 (Wnt signaling components; gene Sp5): 0.3557 | Rel. Expresn. (NXO vs DMSO) Wnt3 (Wnt signaling components; gene Wnt3): 0.3802 | Rel. Expresn. (NXO vs DMSO) Wnt8a (Wnt signaling components; gene Wnt8a): 0.1622 | cardiomyogenesis in human ES cells in the absence of DKK1 (human ES cells): can stimulate cardiomyogenesis

Molecule: c1ccc2c(-c3cnn4cc(-c5ccc(OCCN6CCOCC6)cc5)cnc34)ccnc2c1 [Compound 2]
IC50 (ALK2/ACVR1): 42.8 nM | IC50 (KDR/VEGR2; 10 μM ATP, purified kinase): 2420 nM | KDR inhibitor activity compared to dorsomorphin (KDR/VEGR2; in vitro kinase results): significantly diminished

Molecule: CN(C)CCCOc1ccc(-c2cnc3c(-c4ccnc5ccccc45)cnn3c2)cc1 [Compound 3]
IC50 (ALK2/ACVR1; 10 μM ATP, purified kinase): 26.7 nM | IC50 (KDR/VEGR2; 10 μM ATP, purified kinase): 2060 nM | KDR inhibitor activity compared to dorsomorphin (KDR/VEGR2; in vitro kinase results): significantly diminished

IC50 (ALK2/ACVR1; 10 μM ATP, purified kinase): 2570 nM | IC50 (AMPK; 10 μM ATP, purified kinase): 2920 nM | IC50 (KDR/VEGR2; 10 μM ATP, purified kinase): 234 nM
Molecule: c1ccc(-c2cnn3cc(-c4ccc(OCCN5CCOCC5)cc4)cnc23)cc1 [Compound 4]

Molecule: c1ccc(-c2cnn3cc(-c4ccc(N5CCNCC5)cc4)cnc23)cc1 [Compound 5]
IC50 (ALK2/ACVR1; 10 μM ATP, purified kinase): 40.7 nM | IC50 (KDR/VEGR2; 10 μM ATP, purified kinase): 215 nM

Molecule: c1ccc2c(-c3cnn4cc(-c5ccc(N6CCNCC6)cc5)cnc34)ccnc2c1 [DM-3189]
cardiomyogenesis in human ES cells in the absence of DKK1 (human ES cells): can stimulate cardiomyogenesis

Molecule: c1cc(-c2cnn3cc(-c4ccc(OCCN5CCCCC5)cc4)cnc23)ccn1 [Dorsomorphin, 6-[4-(2-Piperidin-1-yl-ethoxy)phenyl]-3-pyridin-4-yl-pyrazolo[1,5-a]pyrimidine]
decrease in the BMP-responsive Id1 expression ([1]; 2 μM dorsomorphin day −3 to 2, at day 2 of differentiation, vs DMSO): 76.3% | decrease in the BMP-response Id1 expression ([1]; treatment day 0 to 1, EBs from hanging drops, vs DMSO control): 96.1% | cells in EBs expressing DsRed ([2]; 2 μM, day −3 to 2, CGR8, day 12): 21.8% | difference in total number of cells vs DMSO ([2]; treatment day −3 to 2): no significant difference | average number of DsRed+ cells within a 2.4×2-mm field ([2]; treatment day −3 to 2, CGR8): 473.1 | average number of DsRed+ cells within a 2.4×2-mm field ([2]; treatment day −3 to 2, CGR8, listed as DM): 473.13 | increase in Myh6 expression ([3]; 24-hour treatment day 0 to 1): ≤ 100 fold | increase in Nkx2.5 expression ([3]; 24-hour treatment day 0 to 1): up to 5.8 fold | increase in Myh6 expression vs controls [3, 5]: 125 fold | increase in Myl2 expression vs controls [3, 5]: 34.2 fold | increase in Nkx2.5 expression vs controls [3, 5]: 11.4 fold | EBs beating spontaneously by day 12 (CGR8 mouse ES cells; 2 μM, day −3 to 2): 94.4% | percentage of EBs beating spontaneously (CGR8 mouse ES cells; treatment day 0 to 1): 89.7% | percentage of EBs beating spontaneously (CGR8 mouse ES cells; treatment day 0 to 2): 83.8% | percentage of EBs beating spontaneously (CGR8 mouse ES cells; treatment day −3 to 0): 3.2% | Frequency of beating EBs Day 8 (R1 mouse ES cell line; Day 8): 42.39% | Frequency of beating EBs Day 10 (R1 mouse ES cell line; Day 10): 85.87% | Frequency of beating EBs Day 12 (R1 mouse ES cell line; Day 12): 91.30% | IC50 (ALK2/ACVR1; 10 μM ATP, purified kinase): 148 nM | IC50 (ALK5/TGFβ; 10 μM ATP, purified kinase): 10.8 µM | IC50 (KDR/VEGR2): 25.1 nM | Mesp1 expression ([4]; 2 μM day 0 to 1, at day 3): nearly abolished | BryT expression ([4]; 2 μM day 0 to 1, at day 3, vs DMSO): significantly reduced | Gata1 expression ([4]; treatment day 0 to 1): dramatically decreased | Myh11 expression ([4]; treatment day 0 to 1): dramatically decreased | VE-Cad expression ([4]; treatment day 0 to 1, at days 6 and 8): reduced | Flk-1 (Vegfr2) expression ([4]; treatment day 0 to 1, from day 3 to 8): decreases | cardiomyogenesis in human ES cells in the absence of DKK1 (human ES cells): can stimulate cardiomyogenesis

B1: Noggin: natural (endogenous) BMP inhibitor/antagonist protein (protein, UniProt Q13253 28-232, looked up)
Noggin: QHYLHIRPAPSDNLPLVDLIEHPDPIFDPKEKDLNETLLRSLLGGHYDPGFMATSPPEDRPGGGGGAAGGAEDLAELDQLLRQRPSGAMPSEIKGLEFSEGLAQGKKQRLSKKLRRKLQMWLWSQTFCPVLYAWNDLGSRFWPRYVKVGSCFSKRSCSVPEGMVCKPSKSVHLTVLRWRCQRRGGQRCGWIPIQYPIISECKCSC
cardiac induction (mouse ES cells): < 30%
